Broadly, the IC50 is the concentration that inhibits the measured activity by half.

Experiment [1] relates to PC3 (PTEN null) cellular model. Description: pAKT (T308) ELISA assay, PC3. The class given is cell-based. The following applies: Homo sapiens; IGF1 stimulation. The procedure: Cells were incubated at 37° C., 5% CO2 for 48 h (except MDA-MB-453 cells which were cultured in the absence of CO2). Compounds were serially diluted in DMSO and subsequently diluted in serum-free DMEM. Test compounds were added to cells in serum-free DMEM at a final concentration of 0.3% DMSO and incubated for 3 h. Cells were lysed with 130 μL of ice-cold RIPA lysis buffer (50 mM Tris-HCl, pH 7.5; 0.5% sodium deoxycholic acid; 1% Triton X-100; 0.1% SDS; 150 mM NaCl) with protease and phosphatase inhibitors (1 mM EDTA, 1 mM NaF, 20 mM β-glycerophosphate, 1 mM Na-orthovanadate, Complete-Mini EDTA-free, Roche, 11836170001, and Phosphatase Inhibitor Cocktail I, Sigma, P2850), directly in 96-well plates. Cells were lysed on ice for 60-120 min at 4° C. The supernatants were added directly to capture ELISA plates previously pre-coated with rabbit anti-AKT capture antibody. ELISA assays for pAKT(T308) and total AKT were performed with the pAKT(T308) ELISA kit (Cell Signaling Technology, 7144) and AKT1 ELISA kit (Cell Signaling Technology, 7142). For the pAKT(T308) ELISA, 85 μL of cell lysate was added to each well. For the total AKT1 ELISA, 15 μL of cell lysate and 85 μL of Starting Block buffer (Pierce, 37543) were added to each well.
(An ELISA detects its analyte on a solid surface through an enzyme-linked reagent.)

In the next experiment the test system is HCT 116 (PI3Kα H1047R). Description: pAKT (T308) ELISA assay, HCT 116. The format is cell-based. The following applies: Homo sapiens, PI3KαH1047R, IGF1, read-out: Cellular pAKT (T308) IC50 HCT 116. The procedure:
(§1) In another embodiment, the pAKT ELISA Assay was performed by seeding cells onto 96-well plates (Corning, 3904) in their respective growth media at the densities listed in Table 3. Cells were incubated at 37° C., 5% CO2 for 48 h (except MDA-MB-453 cells which were cultured in the absence of CO2). Compounds were serially diluted in DMSO and subsequently diluted in serum-free DMEM. Test compounds were added to cells in serum-free DMEM at a final concentration of 0.3% DMSO and incubated for 3 h. Cells were lysed with 130 μL of ice-cold RIPA lysis buffer (50 mM Tris-HCl, pH 7.5; 0.5% sodium deoxycholic acid; 1% Triton X-100; 0.1% SDS; 150 mM NaCl) with protease and phosphatase inhibitors (1 mM EDTA, 1 mM NaF, 20 mM β-glycerophosphate, 1 mM Na-orthovanadate, Complete-Mini EDTA-free, Roche, 11836170001, and Phosphatase Inhibitor Cocktail I, Sigma, P2850), directly in 96-well plates. Cells were lysed on ice for 60-120 min at 4° C. The supernatants were added directly to capture ELISA plates previously pre-coated with rabbit anti-AKT capture antibody. […] The wells were measured for luminescence using a Wallac plate reader at wavelength of 560 nm. After normalization of pAKT signal to total AKT1 signal, IC50 values were determined relative to the DMSO-treated control.

Another experiment deals with PI3Kδ (Homo sapiens, UniProt O00329). Description: PI3K biochemical assay, PI3Kδ. The following applies: PIP2 as substrate. The procedure:
(§2) PI3Kα activity is measured as the percent of ATP consumed following the kinase reaction using luciferase-luciferin-coupled chemiluminescence. Reactions were conducted in 384-well white, medium binding microtiter plates (Greiner). Kinase reactions were initiated by combining test compounds, ATP, substrate (PIP2), and kinase in a 20 μL volume in a buffer solution. The standard PI3Kalpha assay buffer is composed 50 mM Tris, pH 7.5, 1 mM EGTA, 10 mM MgCl2, 1 mM DTT and 0.03% CHAPS. The standard assay concentrations for enzyme, ATP, and substrate are 1.5 nM, 1 μM, and 10 μM, respectively. The reaction mixture was incubated at ambient temperature for approximately 2 h. Following the kinase reaction, a 10 μL aliquot of luciferase-luciferin mix (Promega Kinase-Glo) was added and the chemiluminescence signal measured using a Victor2 plate reader (Perkin Elmer). Total ATP consumption was limited to 40-60% and IC50 values of control compounds correlate well with literature references. Substituting PI3Kα with PI3Kβ, PI3Kγ, or PI3Kδ, the inhibitory activity of the compounds for the other isoforms of I3K were measured.

The test system of another experiment is SK-OV-3 (PI3Kα H1047R). Description: pAKT (T308) ELISA assay, SK-OV-3. The class given is cell-based. The following applies: Homo sapiens, PI3KαH1047R, IGF1, read-out: Cellular pAKT (T308) IC50 SK-OV-3. The procedure:
as §1

A further experiment addresses PI3Kβ (Homo sapiens, UniProt P42338). Description: PI3K biochemical assay, PI3Kβ. The procedure: as §2, with “Total ATP consumption was limited to 40-60% and IC50 values of control compounds correlate well with literature references.” left out

SMILES strings stand for the structures. A value given as a limit tells only on which side of the number the result lay.

Sequence of PI3Kβ (P42338 whole entry): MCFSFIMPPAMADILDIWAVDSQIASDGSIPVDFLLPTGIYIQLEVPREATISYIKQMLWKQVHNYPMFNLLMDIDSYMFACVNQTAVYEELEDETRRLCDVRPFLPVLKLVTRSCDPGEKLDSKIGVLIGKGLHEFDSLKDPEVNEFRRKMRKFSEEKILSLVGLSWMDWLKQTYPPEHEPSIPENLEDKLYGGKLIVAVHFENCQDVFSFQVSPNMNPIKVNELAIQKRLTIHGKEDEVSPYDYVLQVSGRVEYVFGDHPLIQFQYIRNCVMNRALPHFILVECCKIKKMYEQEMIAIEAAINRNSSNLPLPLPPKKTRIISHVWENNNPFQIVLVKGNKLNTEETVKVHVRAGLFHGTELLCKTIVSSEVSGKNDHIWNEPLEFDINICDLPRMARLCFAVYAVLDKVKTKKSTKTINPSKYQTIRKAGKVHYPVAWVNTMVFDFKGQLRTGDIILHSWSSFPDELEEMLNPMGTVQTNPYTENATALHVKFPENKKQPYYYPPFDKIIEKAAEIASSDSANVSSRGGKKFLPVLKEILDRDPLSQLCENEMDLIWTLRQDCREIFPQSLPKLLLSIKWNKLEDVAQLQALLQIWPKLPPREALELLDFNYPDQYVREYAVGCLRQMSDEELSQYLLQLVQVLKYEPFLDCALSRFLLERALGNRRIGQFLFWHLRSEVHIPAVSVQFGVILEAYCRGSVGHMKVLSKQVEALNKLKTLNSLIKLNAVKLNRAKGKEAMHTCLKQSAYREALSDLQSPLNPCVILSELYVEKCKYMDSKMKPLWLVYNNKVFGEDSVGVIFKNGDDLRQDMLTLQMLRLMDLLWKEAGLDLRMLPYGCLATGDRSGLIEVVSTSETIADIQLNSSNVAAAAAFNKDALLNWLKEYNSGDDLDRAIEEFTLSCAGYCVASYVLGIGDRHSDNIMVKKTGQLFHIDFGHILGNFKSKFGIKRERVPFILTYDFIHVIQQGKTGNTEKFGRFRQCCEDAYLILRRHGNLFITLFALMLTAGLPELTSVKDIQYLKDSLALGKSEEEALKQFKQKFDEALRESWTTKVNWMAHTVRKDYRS
Sequence of PI3Kβ (P27986 whole entry partner): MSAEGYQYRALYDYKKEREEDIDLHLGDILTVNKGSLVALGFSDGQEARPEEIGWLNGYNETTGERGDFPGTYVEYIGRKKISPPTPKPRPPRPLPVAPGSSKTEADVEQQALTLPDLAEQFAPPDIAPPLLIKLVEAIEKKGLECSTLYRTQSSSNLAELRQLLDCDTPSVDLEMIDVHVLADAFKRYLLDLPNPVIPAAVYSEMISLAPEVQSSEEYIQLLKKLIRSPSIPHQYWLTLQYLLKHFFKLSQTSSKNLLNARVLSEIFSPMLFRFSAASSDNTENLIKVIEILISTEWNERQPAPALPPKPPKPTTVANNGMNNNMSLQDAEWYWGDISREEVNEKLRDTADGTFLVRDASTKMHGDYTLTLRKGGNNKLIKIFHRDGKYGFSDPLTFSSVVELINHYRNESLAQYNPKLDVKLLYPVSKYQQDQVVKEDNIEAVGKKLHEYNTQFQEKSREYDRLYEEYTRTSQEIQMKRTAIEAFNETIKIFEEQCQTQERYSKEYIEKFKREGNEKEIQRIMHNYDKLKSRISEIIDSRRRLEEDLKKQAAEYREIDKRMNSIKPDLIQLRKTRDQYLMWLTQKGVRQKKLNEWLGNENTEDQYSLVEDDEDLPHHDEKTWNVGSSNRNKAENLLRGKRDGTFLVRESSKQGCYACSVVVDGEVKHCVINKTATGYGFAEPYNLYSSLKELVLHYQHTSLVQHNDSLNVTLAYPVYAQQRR
Sequence of PI3Kδ (O00329 whole entry): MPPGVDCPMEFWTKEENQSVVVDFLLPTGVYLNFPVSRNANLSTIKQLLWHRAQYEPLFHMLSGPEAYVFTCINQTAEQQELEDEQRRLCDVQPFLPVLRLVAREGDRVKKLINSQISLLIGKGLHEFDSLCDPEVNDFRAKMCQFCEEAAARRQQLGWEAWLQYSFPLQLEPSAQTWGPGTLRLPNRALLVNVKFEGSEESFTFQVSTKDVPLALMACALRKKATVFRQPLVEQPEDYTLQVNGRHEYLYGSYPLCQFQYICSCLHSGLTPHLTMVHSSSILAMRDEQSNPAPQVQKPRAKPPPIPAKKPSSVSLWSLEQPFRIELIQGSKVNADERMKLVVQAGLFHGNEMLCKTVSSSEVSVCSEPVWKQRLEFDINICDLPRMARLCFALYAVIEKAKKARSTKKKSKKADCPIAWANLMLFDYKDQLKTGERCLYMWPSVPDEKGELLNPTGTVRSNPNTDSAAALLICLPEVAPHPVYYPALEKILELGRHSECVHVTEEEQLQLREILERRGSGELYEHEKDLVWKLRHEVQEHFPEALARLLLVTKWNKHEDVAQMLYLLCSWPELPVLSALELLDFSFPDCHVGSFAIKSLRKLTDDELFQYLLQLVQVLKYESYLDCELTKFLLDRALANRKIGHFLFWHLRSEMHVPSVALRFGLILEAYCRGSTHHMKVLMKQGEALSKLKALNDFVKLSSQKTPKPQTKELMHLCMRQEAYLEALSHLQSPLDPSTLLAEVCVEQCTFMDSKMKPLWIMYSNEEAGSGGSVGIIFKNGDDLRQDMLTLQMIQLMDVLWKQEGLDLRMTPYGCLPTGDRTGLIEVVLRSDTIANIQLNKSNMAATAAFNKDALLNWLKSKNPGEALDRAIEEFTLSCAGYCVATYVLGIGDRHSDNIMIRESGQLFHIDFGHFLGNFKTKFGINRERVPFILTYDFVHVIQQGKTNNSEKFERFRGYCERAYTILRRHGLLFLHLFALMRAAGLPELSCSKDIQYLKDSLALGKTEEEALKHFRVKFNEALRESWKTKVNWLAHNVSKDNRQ
Sequence of PI3Kδ (P27986 whole entry partner): as the sequence (P27986 whole entry partner) above

Regarding `Cc1cc(C(C)Nc2ccccc2)c2nc(N3CCOCC3)cc(=O)n2c1` (centres unmarked) [TGX-221, 7-methyl-2-(4-morpholinyl)-9-[1-(phenylamino)ethyl]-4H-pyrido[1,2-a]pyrimidin-4-one], the IC50 in experiment [1] was 11.2 µM; in the experiment on HCT 116 (PI3Kα H1047R) it was 26.4 µM; at PI3Kδ it was 0.142 µM; in the experiment with SK-OV-3 (PI3Kα H1047R), over 30 µM. For the same compound, the “activity against PI3Kβ (in words)” value on PI3Kβ is “active”.

The values above are taken from patent US20140066431A1, “Benzoxazepines as Inhibitors of PI3K/mTOR and Methods of Their Use and Manufacture” (Exelixis, Inc., priority 2010, published 2014).
